The results in this text go back to patent publication US10017481B2, “Conformationally constrained, fully synthetic macrocyclic compounds” (POLYPHOR AG, priority 2012, dated 2018).

A value given as a limit tells only on which side of the number the result lay.

Format in all cases: in vitro ADME
The nature of series [1]: Plasma stability assay, human plasma. Conditions: for Plasma Stability 240 min hum [% remain.]: human plasma, 10 μM, 37° C.; for half-life at 10 μM: human, plasma. How it is done: (§1) 5. Plasma and Metabolic Stability Assays Example compounds were dissolved in DMSO/H2O 90:10 to a final concentration of 10 mM for plasma stability determination and metabolic stability determination. The assays were conducted according to literature precedents (F. P. Guengerich, Analysis and Characterization of Enzymes; in: Principles and Methods of Toxicology, A. W. Hayes (Ed.) Raven Press: New York, 1989, 777-813; R. Singh et al., In vitro metabolism of a potent HIV-protease inhibitor (141W94) using rat, monkey and human liver S9, Rapid Commun. Mass Spectrom. 1996, 10, 1019-1026). Plasma Stability Assay Human plasma (Blutspendedienst SRK, Basel) and CD-1 mouse plasma (mixed gender pool >50 animals, Innovative Research, Calif., USA) are both sodium citrate stabilized. The assay is performed in triplicates at 10 μM compound concentration and 37° C. Samples are taken at 0, 15, 30, 60, 120 and 240 minutes and stopped by precipitation with 3 volumes of acetonitrile/formic acid 98:2 and shaking (2 minutes, 600 rpm) followed by filtration (−20 mm Hg). The filtrate is collected. The filtrate (100 μL) is evaporated and reconstituted in the suitable solvent (cf. Table 33) to be analyzed by HPLC/MS/MS. The resulting peak area counts are expressed in percent of the 0 value and used to determine the endpoint stability in % and the half life T in minutes. In order to monitor assay integrity the degradation of propantheline is assayed with every experimental set.

The nature of series [2]: Plasma stability assay, CD-1 mouse plasma. Conditions: for Plasma Stability 240 min mouse/(rat) [% remain.]: CD-1 mouse plasma, 10 μM, 37° C.; for half-life at 10 μM: both sexes, CD-1, mouse, plasma. How it is done: as §1
Series [3] can be described thus: Metabolic stability assay, human liver microsomes. The following applies: human microsomes, 10 μM, 37° C.; for half-life at 10 μM: both sexes, liver microsomes, 1 mg/ml protein, read-out: Metabolic Stability T ½ [min] hum. The protocol: (§2) 5. Plasma and Metabolic Stability Assays
(§3) Example compounds were dissolved in DMSO/H2O 90:10 to a final concentration of 10 mM for plasma stability determination and metabolic stability determination.
(§4) The assays were conducted according to literature precedents (F. P. Guengerich, Analysis and Characterization of Enzymes; in: Principles and Methods of Toxicology, A. W. Hayes (Ed.) Raven Press: New York, 1989, 777-813; R. Singh et al., In vitro metabolism of a potent HIV-protease inhibitor (141W94) using rat, monkey and human liver S9, Rapid Commun. Mass Spectrom. 1996, 10, 1019-1026).
(§5) Metabolic Stability Assay
(§6) Microsomes from a human 50 donor mixed gender pool and 1:1 mixtures of microsomes from CD-1 mouse single-gender pools are purchased from Celsis (Belgium). The enzymatic reaction is performed in a buffer containing an NADPH regeneration system and microsomes with the following end concentrations: 100 mM potassium phosphate buffer (all from Sigma), 1 mg/mL glucose-6-phosphate, 1 mg/mL β-nicotinamide adenine dinucleotide phosphate (NADP), 0.65 mg/mL magnesium chloride, 0.8 units/mL of glucose-6-phosphate dehydrogenase (prediluted with 5 mM citrate buffer), 10 μM compound and 1 mg/ml microsomal protein. Compounds are incubated at 37° C. in duplicates and samples are taken after 0, 5, 10, 20 and 60 minutes. After acetonitrile precipitation (3 volumes), shaking (2 minutes, 600 rpm) followed by centrifugation (10 minutes, 3200 g), the supernatant is dried reconstituted in the suitable solvent (cf. Table 33) and analyzed by HPLC/MS/MS. Metabolic turnover is expressed in % of the initial 0 minutes value and half life T½ (min) is calculated. Verapamil for human and propranolol for mouse are used as reference and are assayed with every experimental set.

Series [4] is described as follows: Metabolic stability assay, CD-1 mouse microsomes. The following applies: CD-1 mouse microsomes, 10 μM, 37° C.; for half-life at 10 μM: both sexes, 1 mg/ml protein, read-out: Metabolic Stability T ½ [min] mouse/(rat). How it is done:
as §2, §3, §4, §5, §6

With `COc1ccc2c(c1)-c1cccc(c1)C(=O)N(C)[C@H](C(=O)O)CCC(=O)N[C@H](C)CO2` [Ex. 42, (10R,15S)-4-methoxy-10,16-dimethyl-12,17-dioxo-8-oxa-11,16-diazatricyclo[16.3.1.0^2,7]docosa-1(22),2,4,6,18,20-hexaene-15-carboxylic acid], in series [1], the “Plasma Stability 240 min hum [% remain.]” value was 91 % remain and the half-life at 10 μM was greater than 4 h. Also, in series [2], the “Plasma Stability 240 min mouse/(rat) [% remain.]” value is recorded as 100 % remain and the half-life at 10 μM was greater than 4 h. In series [3], the half-life at 10 μM is greater than 60 min and the “Metabolic Stability 60 min hum [% remain.]” value was 100 % remain. Also, in series [4], the “Metabolic Stability 60 min mouse/(rat) [% remain.]” value came to 100 % remain and the half-life at 10 μM was greater than 60 min.
Regarding `COc1ccc2c(c1)-c1cccc(c1)C(=O)N(C)[C@H](C(N)=O)CCC(=O)N[C@H](C)CO2` [Ex. 43, (10R,15S)-4-methoxy-10,16-dimethyl-12,17-dioxo-8-oxa-11,16-diazatricyclo[16.3.1.0^2,7]docosa-1(22),2,4,6,18,20-hexaene-15-carboxamide], in series [1], the “Plasma Stability 240 min hum [% remain.]” value is given as 97 % remain and the half-life at 10 μM is greater than 4 h. Also, in series [2], the “Plasma Stability 240 min mouse/(rat) [% remain.]” value is listed as 63 % remain and the half-life at 10 μM was greater than 4 h. For the same molecule, in series [3], the half-life at 10 μM was greater than 60 min and the “Metabolic Stability 60 min hum [% remain.]” value is on record as 100 % remain. In addition, in series [4], the “Metabolic Stability 60 min mouse/(rat) [% remain.]” value was 83 % remain and the half-life at 10 μM is greater than 60 min.
With `CNC(=O)[C@@H]1CCC(=O)N[C@H](C)COc2ccc(OC)cc2-c2cccc(c2)C(=O)N1C` [Ex. 44, (10R,15S)-4-methoxy-N,10,16-trimethyl-12,17-dioxo-8-oxa-11,16-diazatricyclo[16.3.1.0^2,7]docosa-1(22),2,4,6,18,20-hexaene-15-carboxamide], in series [1], the “Plasma Stability 240 min hum [% remain.]” value is 100 % remain and the half-life at 10 μM is greater than 4 h. In series [2], the “Plasma Stability 240 min mouse/(rat) [% remain.]” value turned out to be 83 % remain and the half-life at 10 μM was greater than 4 h. In series [3], the half-life at 10 μM was greater than 60 min and the “Metabolic Stability 60 min hum [% remain.]” value stood at 68 % remain. Besides, in series [4], the “Metabolic Stability 60 min mouse/(rat) [% remain.]” value is 77 % remain and the half-life at 10 μM is greater than 60 min.
Regarding `COc1ccc2c(c1)-c1cccc(c1)C(=O)N(C)[C@H](C(=O)NCC(F)(F)F)CCC(=O)N[C@H](C)CO2` [Ex. 53, (10R,15S)-4-methoxy-10,16-dimethyl-12,17-dioxo-N-(2,2,2-trifluoroethyl)-8-oxa-11,16-diazatricyclo[16.3.1.0^2,7]docosa-1(22),2,4,6,18,20-hexaene-15-carboxamide], in series [2], the “Plasma Stability 240 min mouse/(rat) [% remain.]” value came out at 86 % remain and the half-life at 10 μM is greater than 4 h. In addition, in series [3], the half-life at 10 μM is greater than 60 min and the “Metabolic Stability 60 min hum [% remain.]” value is 100 % remain. Besides, in series [4], the “Metabolic Stability 60 min mouse/(rat) [% remain.]” value is on record as 92 % remain and the half-life at 10 μM is greater than 60 min.
For `COc1ccc2c(c1)-c1cccc(c1)C(=O)N(C)[C@H](C(=O)NCCO)CCC(=O)N[C@H](C)CO2` [Ex. 55, (10R,15S)-N-(2-hydroxyethyl)-4-methoxy-10,16-dimethyl-12,17-dioxo-8-oxa-11,16-diazatricyclo[16.3.1.0^2,7]docosa-1(22),2,4,6,18,20-hexaene-15-carboxamide], in series [2], the “Plasma Stability 240 min mouse/(rat) [% remain.]” value is on record as 80 % remain and the half-life at 10 μM is greater than 4 h. In addition, in series [3], the half-life at 10 μM is greater than 60 min and the “Metabolic Stability 60 min hum [% remain.]” value is 97 % remain. For the same molecule, in series [4], the “Metabolic Stability 60 min mouse/(rat) [% remain.]” value is 98 % remain and the half-life at 10 μM was greater than 60 min.
For `COc1ccc2c(c1)-c1cccc(c1)C(=O)N(C)[C@H](C(=O)N[C@@H](C)c1ccccc1)CCC(=O)N[C@H](C)CO2` [Ex. 58, (10R,15S)-4-methoxy-10,16-dimethyl-12,17-dioxo-N-[(1S)-1-phenylethyl]-8-oxa-11,16-diazatricyclo[16.3.1.0^2,7]docosa-1(22),2,4,6,18,20-hexaene-15-carboxamide], in series [1], the “Plasma Stability 240 min hum [% remain.]” value turned out to be 95 % remain and the half-life at 10 μM was greater than 4 h. Besides, in series [3], the half-life at 10 μM is greater than 60 min and the “Metabolic Stability 60 min hum [% remain.]” value is recorded as 87 % remain. In series [4], the “Metabolic Stability 60 min mouse/(rat) [% remain.]” value worked out at 70 % remain and the half-life at 10 μM is greater than 60 min.
As to `COc1ccc2c(c1)-c1cccc(c1)C(=O)N(C)[C@H](C(=O)NCc1cccc3ccccc13)CCC(=O)N[C@H](C)CO2` [Ex. 60, (10R,15S)-4-methoxy-10,16-dimethyl-N-(1-naphthylmethyl)-12,17-dioxo-8-oxa-11,16-diazatricyclo[16.3.1.0^2,7]docosa-1(22),2,4,6,18,20-hexaene-15-carboxamide], in series [1], the “Plasma Stability 240 min hum [% remain.]” value turned out to be 97 % remain and the half-life at 10 μM is greater than 4 h. Further, in series [3], the half-life at 10 μM was 8 min and the “Metabolic Stability 60 min hum [% remain.]” value came to 0 % remain. For the same molecule, in series [4], the “Metabolic Stability 60 min mouse/(rat) [% remain.]” value was found to be 19 % remain and the half-life at 10 μM was 25 min.
For `C[C@H]1COc2cccc(c2)-c2cccc(c2)C(=O)N(C)[C@H](C(=O)NCCc2ccccc2)CCC(=O)N1` [Ex. 73, (9S,14S)-9,15-dimethyl-11,16-dioxo-N-phenethyl-7-oxa-10,15-diazatricyclo [15.3.1.1^2,6]docosa-1(21),2(22),3,5,17,19-hexaene-14-carboxamide], in series [1], the “Plasma Stability 240 min hum [% remain.]” value worked out at 89 % remain and the half-life at 10 μM was greater than 4 h. Further, in series [3], the half-life at 10 μM was 2 min and the “Metabolic Stability 60 min hum [% remain.]” value was 0 % remain. Moreover, in series [4], the “Metabolic Stability 60 min mouse/(rat) [% remain.]” value is recorded as 0 % remain and the half-life at 10 μM was found to be 1 min.
For the molecule `C[C@H](NC(=O)[C@@H]1CCC(=O)N[C@@H](C)COc2cccc(c2)-c2cccc(c2)C(=O)N1C)c1ccccc1` [Ex. 76, (9S,14S)-9,15-dimethyl-11,16-dioxo-N-[(1S)-1-phenylethyl]-7-oxa-10,15-diazatricyclo[15.3.1.1^2,6]docosa-1(21),2(22),3,5,17,19-hexaene-14-carboxamide], in series [1], the “Plasma Stability 240 min hum [% remain.]” value is listed as 88 % remain and the half-life at 10 μM is greater than 4 h. In series [3], the half-life at 10 μM was found to be 16 min and the “Metabolic Stability 60 min hum [% remain.]” value is 4 % remain. For the same molecule, in series [4], the “Metabolic Stability 60 min mouse/(rat) [% remain.]” value was determined as 9 % remain and the half-life at 10 μM was 15 min.
Regarding `C[C@H]1COc2cccc(c2)-c2cccc(c2)C(=O)N(C)[C@H](C(=O)N2CCC2)CCC(=O)N1` [Ex. 86, (9S,14S)-14-(1-azetanylcarbonyl)-9,15-dimethyl-7-oxa-10,15-diazatricyclo [15.3.1.1^2,6]docosa-1(21),2(22),3,5,17,19-hexaene-11,16-dione], in series [2], the “Plasma Stability 240 min mouse/(rat) [% remain.]” value was 60 % remain and the half-life at 10 μM was greater than 4 h. Also, in series [4], the “Metabolic Stability 60 min mouse/(rat) [% remain.]” value amounted to 71 % remain and the half-life at 10 μM is greater than 60 min.
As for `C[C@H]1COc2cccc(c2)-c2cccc(c2)C(=O)N(C)[C@H](C(=O)NCc2cn(C)cn2)CCC(=O)N1` [Ex. 88, (9S,14S)-9,15-dimethyl-N-[(1-methyl-1H-imidazol-4-yl)methyl]-11,16-dioxo-7-oxa-10,15-diazatricyclo[15.3.1.1^2,6]docosa-1(21),2(22),3,5,17,19-hexaene-14-carboxamide], in series [2], the “Plasma Stability 240 min mouse/(rat) [% remain.]” value is on record as 81 % remain and the half-life at 10 μM was greater than 4 h. Further, in series [3], the half-life at 10 μM stood at 56 min and the “Metabolic Stability 60 min hum [% remain.]” value is 49 % remain. Also, in series [4], the “Metabolic Stability 60 min mouse/(rat) [% remain.]” value is on record as 62 % remain and the half-life at 10 μM is greater than 60 min.
